Reference: patent US20160279110A1, “COMPOSITIONS AND METHODS FOR TREATING CANCER” (UNIVERSITY OF ROCHESTER, priority 2015, published 2016)
Where two headings read alike, the source gives them in different places.

How the values were obtained:
NMD [1] = assay: NMD reporter mRNA levels by RT-qPCR in MCF7 cells exposed to NMDI-1; assay type: cell-based, human
HeLa cells = test system: HeLa cells; design: reduction in cell viability relative to doxorubicin alone: dose or concentration left out as unconfirmed
Protocol: Viable cells were quantitated using a Cell Titer Glo assay. […] (d) HeLa cells were plated as in b and exposed to one of three treatments 24 h later—the indicated doxonibicin concentration is provided for 16 h either alone (left histogram) or in the presence of 10 μM NMDI-1 (middle histogram). Alternatively, cells were preincubated with 10 M NMDI-1 for 8 h, washed three times and incubated with the indicated concentrations of doxorubicin for 16 h in the absence of NMDI-1. Viable cells were quantitated as in b. Error bars=S.E.M, *=P<0.05 relative to doxorubicin alone treatment using the Student's t-test. n=4 biological replicates.
Cells were plated in white opaque 96-well plates using multichannel pipettors for accuracy and treated as described in the figure legends. CellTiter-Glo luminescent assays (Promega) were performed according to manufacturer's directions. Data were collected using a SpectraMax M2 plate reader.
First, HeLa cells were challenged with various concentrations of doxorubicin alone. Second, cells were continuously co-incubated for 16 h with doxorubicin and NMDI-1. Third, a transient pulse of NMDI-1 was applied for 8 h, cells were washed to remove NMDI-1, and doxorubicin was then applied.

NMD [2] = assay: NMD reporter mRNA levels (β-Gl Ter, GPx1 Ter) by RT-qPCR in HeLa cells exposed to NMDI-1; assay type: cell-based, human
Protocol: Norm encodes a PTCfree version of GPx1 mRNA, whereas Ter encodes mRNA harboring a PTC at codon 46. Cells were re-plated 16 h after transfection at equivalent densities and exposed 24 h later to the indicated concentration of NMDI-1 or, as a positive control for NMD inhibition, cycloheximide (CHX). The levels of β-Gl reporter mRNAs were normalized to the level of the MUP reference mRNA, and the normalized levels of β-Gl Ter mRNA are presented as a percentage of the normalized level of β-Gl Norm mRNA. FIG. 16b is essentially as in a, except GPx1Ter mRNA was analyzed. FIG. 16c is essentially as in b, except MCF7 cells were used. FIG. 16d is essentially as in b, except MCF7 cells were used.
Cells were homogenized, and RNA was purified using RNeasy mini kits (Qiagen). To ensure linearity of both reverse transcription (RT) and qPCR analyses, 17 standard concentrations were constructed using two-fold serial dilutions of total-cell RNA, beginning with 2 μg. Experimental sample input was 200 ng of RNA. RT was conducted using Superscript III (Invitrogen) according to manufacturer's directions and 100 ng of random hexamer (Invitrogen) in a 20 μl reaction volume. Thermal cycling was as follows: 25° C. for 5 min; 42° C. for 60 min; 50° C. for 60 min; and 75° C. for 10 min. Reactions were diluted to a final volume of 80 μl with water and used for qPCR.
qPCR was conducted using FAST SYBR green master mix (ABI; Foster City, Calif.) according to manufacturer's directions. Cycling was done using a 7500 FAST Real Time machine (ABI) with default conditions, and thermal denaturation curves were generated for each run. Primer sequences were as follows, with mRNA primers sets containing at least one primer spanning an exon-exon junction, and pre-mRNA primer sets containing at least one primer that hybridizes to intronic sequences. Primers for Gl mRNA, GPx1 mRNA and MUP mRNA were described in Kurosaki et al.
Therefore, a small-molecule inhibitor of NMD, NMDI-1 (FIG. 8c), that interferes with the interaction between UPF1 and SMG5 was utilized. Application of NMDI-1 and the consequential attenuation of NMD may more fully replicate the complete inhibition of NMD mediated by the UPF1 CP generation explored here as well as UPF1 dephosphorylation and the generation of additional UPF1 CPs seen with doxorubicin (FIG. 1c).

[3] = NMDI-1 at a concentration of 10

With Cc1c2ccnc(Cl)c2c(C)c2c1[nH]c1ncccc12 [NMDI-1] the “effect on NMD in MCF7 cells” value (NMD [1]) was “no effect”, the “cell viability at sub-lethal doxorubicin” value (HeLa cells; 0.5 μM doxorubicin, doxorubicin alone, co-treatment or pre-treatment with NMDI-1) was “none of the treatments significantly affected viability” and the “reduction in cell viability relative to doxorubicin alone” value (HeLa cells; NMDI-1 pulse 8 h, washed, then doxorubicin 16 h) was about 2.5 fold. The “cell viability relative to doxorubicin treatment alone” value (HeLa cells; continuous co-incubation 16 h with doxorubicin and NMDI-1) was “statistically significant decreases in cell viability”, the “inhibition of NMD in HeLa cells” value (NMD [2]) was “effective in HeLa cells” and the “raising the level of PTC-bearing glutathione peroxidase 1 (GPx1) mRNA” value (NMD [2]; [3]) was about 1.6 fold. For the same molecule, the “raising the level of β-Gl Ter mRNA” value (NMD [2]; [3]) was about 3.8 fold and the “inhibition of NMD in HeLa cells” value (NMD [2]; listed as NMD-1) was “potent inhibitor of NMD”.
